The nature of assay [1]: Inhibition of pig TNAP at pH 7.8 by UV-visible spectrophotometric assay. Also noted: species or system Sus scrofa.
The nature of assay [2]: Inhibition of pig TNAP at pH 10.4 by UV-visible spectrophotometric assay. The arrangement: species or system Sus scrofa.

The structures appear in SMILES notation. Where a name gives a salt, the structure may show the parent alone.

As to `c1cc(-c2cn3ccsc3n2)cs1`, the IC50 in assay [1] and in assay [2] was over 800 µM each time.
For the compound `c1cc(-c2cn3c(n2)SCC3)cs1`, the half-maximal inhibitory concentration (IC50) in assay [1] and in assay [2] was over 800 µM each time.
As to `C1=C(c2ccsc2)N2CCN=C2S1`, the IC50 in assay [1] and in assay [2] was over 800 µM each time.
Turning to `C1=CN2CC(c3ccsc3)N=C2S1` (racemic), the figures for the IC50 in assay [1] and in assay [2] were 84 µM and 42 µM, respectively.
Taken in the same sequence, the figures for `c1cc(C2CN3CCSC3=N2)cs1` (racemic) were 192 µM and 408 µM.
Taken in the same sequence, the figures for `C1=CN2CC(c3cccs3)N=C2S1` (racemic) were 260 µM and 331 µM.
Taken in the same sequence, the figures for `c1csc(C2CN3CCSC3=N2)c1` (racemic) were over 800 µM and over 800 µM.
Turning to `c1ccc([C@H]2CN3CCSC3=N2)cc1` [LEVAMISOLE HYDROCHLORIDE], the figures for the IC50 in assay [1] and in assay [2] were 78 µM and 93 µM, respectively.

These data come from ChEMBL document CHEMBL1759989, “Synthesis and evaluation of thiophenyl derivatives as inhibitors of alkaline phosphatase” (Bioorg Med Chem Lett, 2011).
